Experiments:
Androgen receptor [1] = target: T1, Androgen receptor (Homo sapiens, UniProt P10275); assay: Binding affinity against Androgen receptor transfected into COS cells
T1 sequence (P10275 whole entry): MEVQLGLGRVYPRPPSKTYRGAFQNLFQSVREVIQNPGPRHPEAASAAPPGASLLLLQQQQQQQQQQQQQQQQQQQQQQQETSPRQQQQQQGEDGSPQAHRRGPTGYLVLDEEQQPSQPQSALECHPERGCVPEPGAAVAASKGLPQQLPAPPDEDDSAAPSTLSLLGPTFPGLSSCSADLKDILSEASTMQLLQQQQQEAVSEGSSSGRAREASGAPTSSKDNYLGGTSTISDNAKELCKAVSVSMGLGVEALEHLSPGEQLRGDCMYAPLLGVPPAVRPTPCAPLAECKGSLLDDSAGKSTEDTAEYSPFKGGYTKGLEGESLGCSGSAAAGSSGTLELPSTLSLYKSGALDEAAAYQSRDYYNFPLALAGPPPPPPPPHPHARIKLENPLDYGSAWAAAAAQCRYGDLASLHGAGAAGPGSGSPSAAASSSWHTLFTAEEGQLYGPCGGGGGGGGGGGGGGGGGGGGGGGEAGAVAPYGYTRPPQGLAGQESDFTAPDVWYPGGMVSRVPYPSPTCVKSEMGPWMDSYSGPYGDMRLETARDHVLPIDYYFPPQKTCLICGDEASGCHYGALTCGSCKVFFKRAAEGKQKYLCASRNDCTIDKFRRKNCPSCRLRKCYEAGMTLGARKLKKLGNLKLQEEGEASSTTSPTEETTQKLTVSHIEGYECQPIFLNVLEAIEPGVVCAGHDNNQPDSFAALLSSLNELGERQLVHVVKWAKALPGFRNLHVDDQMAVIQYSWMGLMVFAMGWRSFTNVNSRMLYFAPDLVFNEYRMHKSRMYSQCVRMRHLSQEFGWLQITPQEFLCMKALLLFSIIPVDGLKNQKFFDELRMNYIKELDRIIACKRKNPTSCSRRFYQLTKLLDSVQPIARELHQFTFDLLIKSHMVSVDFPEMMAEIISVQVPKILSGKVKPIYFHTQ

Androgen receptor [2] = target: T1, Androgen receptor
Androgen receptor [3] = target: T1, Androgen receptor; details: cv-1
Description: Agonistic activity against human androgen receptor (hAR) in co-transfected CV-1 cell

Androgen receptor [4] = target: T1, Androgen receptor; assay: Antagonistic activity (IC50) against human androgen receptor (hAR) in co-transfected CV-1 cell; type: functional, cell-based
Androgen receptor [5] = target: T1, Androgen receptor; assay: Agonistic activity (EC50) against human androgen receptor (hAR) in co-transfected CV-1 cell; type: functional, cell-based
[6] = target: T2, Mineralocorticoid receptor (Homo sapiens, UniProt P08235); assay: (§1) Antagonistic activity against hMR in co-transfected CV-1 cell; type: functional, cell-based
T2 sequence (P08235 whole entry): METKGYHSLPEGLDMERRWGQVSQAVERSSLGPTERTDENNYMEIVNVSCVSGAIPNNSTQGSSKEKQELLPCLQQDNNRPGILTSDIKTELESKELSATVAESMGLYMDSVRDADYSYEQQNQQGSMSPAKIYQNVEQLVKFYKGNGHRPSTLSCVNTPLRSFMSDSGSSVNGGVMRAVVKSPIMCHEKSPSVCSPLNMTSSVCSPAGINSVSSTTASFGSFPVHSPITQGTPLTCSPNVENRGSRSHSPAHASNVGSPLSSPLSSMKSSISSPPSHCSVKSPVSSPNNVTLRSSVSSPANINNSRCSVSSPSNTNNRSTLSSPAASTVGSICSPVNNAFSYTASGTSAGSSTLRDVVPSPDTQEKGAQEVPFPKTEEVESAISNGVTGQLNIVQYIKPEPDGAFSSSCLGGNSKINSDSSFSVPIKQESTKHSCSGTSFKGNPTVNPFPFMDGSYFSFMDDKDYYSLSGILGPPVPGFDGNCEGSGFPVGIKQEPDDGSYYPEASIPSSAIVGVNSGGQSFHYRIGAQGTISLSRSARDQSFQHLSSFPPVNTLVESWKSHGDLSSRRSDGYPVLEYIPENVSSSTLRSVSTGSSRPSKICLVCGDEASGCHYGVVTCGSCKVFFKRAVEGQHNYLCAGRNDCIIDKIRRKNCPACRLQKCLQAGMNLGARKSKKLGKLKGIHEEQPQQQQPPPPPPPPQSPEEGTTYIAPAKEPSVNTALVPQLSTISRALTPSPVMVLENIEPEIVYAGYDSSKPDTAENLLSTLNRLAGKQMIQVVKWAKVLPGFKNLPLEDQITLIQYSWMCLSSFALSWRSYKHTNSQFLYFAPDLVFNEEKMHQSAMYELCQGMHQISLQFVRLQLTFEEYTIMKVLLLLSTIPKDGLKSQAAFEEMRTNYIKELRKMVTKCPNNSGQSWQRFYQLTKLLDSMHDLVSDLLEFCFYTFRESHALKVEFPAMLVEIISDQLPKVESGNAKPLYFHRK

Glucocorticoid receptor = target: T3, Glucocorticoid receptor (Homo sapiens, UniProt P04150); assay: (§2) Antagonistic activity against Glucocorticoid receptor in co-transfected CV-1 cell; type: functional, cell-based
T3 sequence (P04150 whole entry): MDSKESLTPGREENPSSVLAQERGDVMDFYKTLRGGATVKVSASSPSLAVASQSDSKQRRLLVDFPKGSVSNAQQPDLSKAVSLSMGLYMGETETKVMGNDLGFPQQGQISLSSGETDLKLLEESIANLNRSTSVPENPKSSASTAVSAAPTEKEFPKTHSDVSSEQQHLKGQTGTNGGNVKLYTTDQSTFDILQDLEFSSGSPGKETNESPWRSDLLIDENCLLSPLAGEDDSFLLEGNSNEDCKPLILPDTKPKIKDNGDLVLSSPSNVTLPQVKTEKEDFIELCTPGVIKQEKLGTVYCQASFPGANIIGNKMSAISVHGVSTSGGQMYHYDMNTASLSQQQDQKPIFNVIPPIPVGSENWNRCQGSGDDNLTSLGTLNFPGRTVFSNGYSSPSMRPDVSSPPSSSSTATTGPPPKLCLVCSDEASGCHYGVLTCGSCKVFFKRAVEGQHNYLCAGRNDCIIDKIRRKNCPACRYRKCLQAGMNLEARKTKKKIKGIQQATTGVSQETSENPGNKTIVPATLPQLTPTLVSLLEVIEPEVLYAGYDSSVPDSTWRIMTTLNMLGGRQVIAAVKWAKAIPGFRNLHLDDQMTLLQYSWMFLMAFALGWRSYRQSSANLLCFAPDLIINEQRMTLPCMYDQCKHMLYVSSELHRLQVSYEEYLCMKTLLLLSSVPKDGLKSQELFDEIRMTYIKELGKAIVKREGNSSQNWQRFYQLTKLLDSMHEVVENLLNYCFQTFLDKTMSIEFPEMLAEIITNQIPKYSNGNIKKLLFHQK

Estrogen receptor [7] = target: T4, Estrogen receptor (Homo sapiens, UniProt Q92731+P03372); assay: (§3) Antagonistic activity against Estrogen receptor in co-transfected CV-1 cell; type: functional, cell-based
Progesterone receptor = target: T5, Progesterone receptor (Homo sapiens, UniProt P06401); assay: (§4) Antagonistic activity against hPR in co-transfected CV-1 cell; type: functional, cell-based
T5 sequence (P06401 whole entry): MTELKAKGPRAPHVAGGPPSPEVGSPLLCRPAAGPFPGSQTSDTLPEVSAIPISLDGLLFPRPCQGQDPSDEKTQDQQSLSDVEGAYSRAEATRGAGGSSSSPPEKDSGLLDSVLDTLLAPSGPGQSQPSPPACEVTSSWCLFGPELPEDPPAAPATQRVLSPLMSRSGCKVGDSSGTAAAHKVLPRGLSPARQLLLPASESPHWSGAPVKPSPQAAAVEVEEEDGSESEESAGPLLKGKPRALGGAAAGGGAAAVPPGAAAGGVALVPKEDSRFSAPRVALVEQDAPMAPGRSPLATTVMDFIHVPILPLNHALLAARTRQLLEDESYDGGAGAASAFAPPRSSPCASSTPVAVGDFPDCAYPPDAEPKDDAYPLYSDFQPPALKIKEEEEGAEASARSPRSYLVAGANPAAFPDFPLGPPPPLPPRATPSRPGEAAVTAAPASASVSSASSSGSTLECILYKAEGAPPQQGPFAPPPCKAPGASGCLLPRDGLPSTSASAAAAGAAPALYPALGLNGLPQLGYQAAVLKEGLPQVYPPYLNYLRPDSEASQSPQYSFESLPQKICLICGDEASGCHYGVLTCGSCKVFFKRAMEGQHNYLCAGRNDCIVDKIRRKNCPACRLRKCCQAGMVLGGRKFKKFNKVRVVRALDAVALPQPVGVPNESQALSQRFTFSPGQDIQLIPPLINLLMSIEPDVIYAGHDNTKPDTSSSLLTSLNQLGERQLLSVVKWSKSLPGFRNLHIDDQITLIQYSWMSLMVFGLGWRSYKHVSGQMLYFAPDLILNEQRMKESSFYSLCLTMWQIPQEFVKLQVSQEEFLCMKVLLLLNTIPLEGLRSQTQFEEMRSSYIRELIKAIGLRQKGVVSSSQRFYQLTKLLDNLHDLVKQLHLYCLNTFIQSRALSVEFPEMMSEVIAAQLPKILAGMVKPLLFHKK

Estrogen receptor [8] = target: T4, Estrogen receptor; assay: as §3; type: functional, cell-based; remark: listed apart in the source
[9] = target: T6, Mineralocorticoid receptor (Homo sapiens) (UniProt P08235); assay: as §1; type: functional, cell-based
T6 sequence (whole entry): T2 sequence (P08235 whole entry)

[10] = target: T7, Glucocorticoid receptor (Homo sapiens) (UniProt P04150); assay: as §2; type: functional, cell-based
T7 sequence (whole entry): T3 sequence (P04150 whole entry)

[11] = target: T8, Progesterone receptor (Homo sapiens) (UniProt P06401); assay: as §4; type: functional, cell-based
T8 sequence (whole entry): T5 sequence (P06401 whole entry)

Row | SMILES | Ki (Androgen receptor [1]) [µM] | IC50 (Androgen receptor [2]) [µM] | EC50 (Androgen receptor [3]) | IC50 (Androgen receptor [4]) | EC50 (Androgen receptor [5]) [µM] | IC50 [6] [µM] | IC50 (Glucocorticoid receptor) [µM] | Efficacy (Estrogen receptor [7]) [%] | IC50 (Progesterone receptor) [µM] | IC50 (Estrogen receptor [8]) [µM] | Efficacy [9] [%] | Efficacy [10] [%] | Efficacy [11] [%]
1 | CCn1c(=O)cc(C(F)(F)F)c2cc3c(cc21)N[C@@H]1CCCC[C@H]31 | 0.194 | 0.23 | Not Active |  |  |  |  |  |  |  |  |  | 
2 | C[C@@H]1CNc2cc3nc(O)cc(C(F)(F)F)c3cc21 | 0.017 |  |  | Not Active | 0.062 |  |  |  |  |  |  |  | 
3 | Cn1c(=O)cc(C(F)(F)F)c2cc3c(cc21)N[C@@H]1CCCC[C@]31C | 0.009 |  |  | Not Active | 0.033 |  |  |  |  |  |  |  | 
4 | C[C@@H]1Cc2cc3c(C(F)(F)F)cc(O)nc3cc2N1 | 0.01 | 0.007 |  |  | 0.168 | > 10 | > 10 | < 20 | 0.75 | > 10 | < 20 | < 20 | 89
5 | C[C@@H]1c2cc3c(C(F)(F)F)cc(=O)n(C)c3cc2N[C@@H]1C | 0.01 | 9.18 |  |  | 0.015 |  |  |  |  |  |  |  | 
6 | CN1c2cc3c(cc2[C@@]2(C)CCCC[C@@H]12)c(C(F)(F)F)cc(=O)n3C | 0.097 | 0.053 | Not Active |  |  |  |  |  |  |  |  |  | 
7 | CC1(C)CNc2cc3nc(O)cc(C(F)(F)F)c3cc21 | 0.028 | 0.01 |  |  | 0.042 |  |  |  |  |  |  |  | 
8 | Cn1c(=O)cc(C(F)(F)F)c2cc3c(cc21)N[C@@H]1CCCC[C@H]31 | 0.004 |  |  | Not Active | 0.01 | 2.9 | 3 | < 20 | 0.15 | > 10 | 58 | 39 | 99
9 | C[C@@H]1Cc2cc3c(C(F)(F)F)cc(=O)n(C)c3cc2N1 | 0.009 |  |  | Not Active | 0.02 |  |  |  |  |  |  |  | 
10 | CCCN1c2cc3c(cc2[C@H]2CCCC[C@H]21)c(C(F)(F)F)cc(=O)n3C | 0.063 | 0.027 |  |  | 0.324 |  |  |  |  |  |  |  | 

Reference: ChEMBL document CHEMBL1130772, “New nonsteroidal androgen receptor modulators based on 4-(trifluoromethyl)-2(1H)-pyrrolidino[3,2-g] quinolinone” (Bioorg Med Chem Lett, 1998)
